Biological target: T1, mu opiate receptor (MOR) (Rattus norvegicus, UniProt P33535)
T1 construct: from tissue; host or cells: striatum (membrane preparation)
Assay: MOR agonist activity using [35S]GTPgS binding assay in striatal membranes
Assay type: biochemical
Method: To assess the mu opiate receptor (MOR) agonist activity of positive compounds from the FLNA screening, compounds were tested in a [^35S]GTPgS binding assay using striatal membranes. […] This assay measures a functional consequence of receptor occupancy at one of the earliest receptor-mediated events. The assay permits for traditional pharmacological parameters of potency, efficacy and antagonist affinity, with the advantage that agonist measures are not subjected to amplification or other modulation that may occur when analyzing parameters further downstream of the receptor.
Thus, striatal tissue was homogenized in 10 volumes of ice cold 25 mM HEPES buffer, pH 7.4, which contained 1 mM EGTA, 100 mM sucrose, 50 mg/ml leupeptin, 0.04 mM PMSF, 2 mg/ml soybean trypsin inhibitor and 0.2% 2-mercaptoethanol. The homogenates were centrifuged at 800×g for 5 minutes and the supernatants were centrifuged at 49,000×g for 20 minutes. The resulting pellets were suspended in 10 volume of reaction buffer, which contained 25 mM HEPES, pH 7.5, 100 mM NaCl, 50 mg/ml leupeptin, 2 mg/ml soybean trypsin inhibitor, 0.04 mM PMSF and 0.02% […].
The resultant striatal membrane preparation (200 mg) was admixed and maintained (incubated) at 30° C. for 5 minutes in reaction buffer as above that additionally contained 1 mM MgCl2 and 0.5 nM [^35S]GTPgS (0.1 mCi/assay, PerkinElmer Life and Analytical Sciences) in a total volume of 250 ml and continued for 5 minutes in the absence or presence of 0.1-10 mM of an assayed compound of interest. The reaction was terminated by dilution with 750 ml of ice-cold reaction buffer that contained 20 mM MgCl2 and 1 mM EGTA and immediate centrifugation at 16,000×g for 5 minutes.
The resulting pellet was solubilized by sonicating for 10 seconds in 0.5 ml of immunoprecipitation buffer containing 0.5% digitonin, 0.2% sodium cholate and 0.5% NP-40. Normal rabbit serum (1 ml) was added to 1 ml of lysate and incubated at 25° C. for 30 minutes. Nonspecific immune complexes were removed by incubation with 25 ml of protein A/G-conjugated agarose beads at 25° C. for 30 minutes followed by centrifugation at 5,000×g at 4° C. for 5 minutes. The supernatant was divided and separately incubated at 25° C. for 30 minutes with antibodies raised against Gao proteins (1:1,000 dilutions).
The immunocomplexes so formed were collected by incubation at 25° C. for 30 minutes with 40 ml of agarose-conjugated protein A/G beads and centrifugation at 5,000×g at 4° C. for 5 minutes. The pellet was washed and suspended in buffer containing 50 mM Tris-HCl, pH 8.0, and 1% NP-40. The radioactivity in the suspension was determined by liquid scintillation spectrometry. […] DAMGO (1 or 10 mM) was used as a positive control.

[1] = 0.1 μM compound as agonist, Series C-1 table
[2] = 0.1 μM compound as agonist, Series C-2 table
[3] = 1 μM compound as agonist, Series C-1 table
[4] = 1 μM compound as agonist, Series C-2 table

T1 sequence (P33535 whole entry): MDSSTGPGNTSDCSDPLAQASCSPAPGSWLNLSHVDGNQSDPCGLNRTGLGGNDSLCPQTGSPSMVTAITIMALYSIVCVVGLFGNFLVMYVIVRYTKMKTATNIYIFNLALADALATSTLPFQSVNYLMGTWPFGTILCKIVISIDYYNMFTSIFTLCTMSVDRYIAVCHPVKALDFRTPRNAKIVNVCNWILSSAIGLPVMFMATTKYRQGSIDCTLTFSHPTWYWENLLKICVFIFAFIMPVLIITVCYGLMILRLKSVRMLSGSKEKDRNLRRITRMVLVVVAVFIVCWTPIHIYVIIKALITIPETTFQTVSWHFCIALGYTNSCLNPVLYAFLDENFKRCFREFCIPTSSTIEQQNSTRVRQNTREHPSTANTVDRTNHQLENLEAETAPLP

With `CC(=O)c1ccc(S(=O)(=O)N2CCC3(CC2)OCCN3S(=O)(=O)c2ccc(C(C)=O)cc2)cc1` [Compound C0011] the “MOR agonist activity ([35S]GTPgS binding to Gao)” value (“MOR agonist activity” below) [1] was 217.0%, the “MOR agonist activity” value [2] was 217.0% and the “MOR agonist activity” value (1 μM + BFNA, Series C-1 table) was 19.0%. The “MOR agonist activity” value (1 μM + BFNA, Series C-2 table) was 19.0%, the “MOR agonist activity” value [3] was 305.0% and the “MOR agonist activity” value [4] was 305.0%.

`O=S(=O)(c1ccc(C(F)(F)F)cc1)N1CCC2(CC1)OCCN2S(=O)(=O)c1ccc(C(F)(F)F)cc1` [Compound C0012] was tested, and the “MOR agonist activity” value [1] was 96.8%, the “MOR agonist activity” value (1 μM + BFNA, Series C-1 table) was 184.4% and the “MOR agonist activity” value [3] was 224.8%.

`CC(=O)Nc1ccc(S(=O)(=O)N2CCC3(CC2)OCCN3S(=O)(=O)c2ccc(NC(C)=O)cc2)cc1` [Compound C0013] was tested, and the “MOR agonist activity” value [1] was 156.6%, the “MOR agonist activity” value (1 μM + BFNA, Series C-1 table) was 39.6% and the “MOR agonist activity” value [3] was 301.2%.

In the case of `Cc1cccc(S(=O)(=O)N2CCC3(CC2)OCCN3S(=O)(=O)c2cccc(C)c2)c1` [Compound C0014], the “MOR agonist activity” value [1] is reported as 144.9%, the “MOR agonist activity” value (1 μM + BFNA, Series C-1 table) is reported as 76.3% and the “MOR agonist activity” value [3] is reported as 153.5%.

With `Cc1ccccc1S(=O)(=O)N1CCC2(CC1)OCCN2S(=O)(=O)c1ccccc1C` [Compound C0015] the “MOR agonist activity” value [1] was 138.7%, the “MOR agonist activity” value (1 μM + BFNA, Series C-1 table) was 126.8% and the “MOR agonist activity” value [3] was 204.7%.

For `O=S(=O)(c1ccccc1)N1CCC2(CC1)OCCN2S(=O)(=O)c1ccccc1` [Compound C0016], the “MOR agonist activity” value [1] was 172.7%, the “MOR agonist activity” value (1 μM + BFNA, Series C-1 table) was 96.7% and the “MOR agonist activity” value [3] was 230.5%.

For `COc1ccc(C(=O)N2CCC3(CC2)OCCN3C(=O)c2ccc(OC)cc2)cc1` [Compound C0017], the “MOR agonist activity” value [1] was 153.8%, the “MOR agonist activity” value (1 μM + BFNA, Series C-1 table) was 94.1% and the “MOR agonist activity” value [3] was 284.5%.

In the case of `COc1ccc(C(=O)N2CCC3(CC2)OCCN3S(=O)(=O)c2ccc(OC)cc2)cc1` [Compound C0018], the “MOR agonist activity” value [1] is reported as 195.5%, the “MOR agonist activity” value (1 μM + BFNA, Series C-1 table) is reported as 106.5% and the “MOR agonist activity” value [3] is reported as 247.7%.

With `COc1ccc(C(=O)N2CCOC23CCN(S(=O)(=O)c2ccc(OC)cc2)CC3)cc1` [Compound C0019] the “MOR agonist activity” value [1] was 104.4%, the “MOR agonist activity” value (1 μM + BFNA, Series C-1 table) was 52.8% and the “MOR agonist activity” value [3] was 176.6%.

For `O=C(O)c1ccc(C(=O)N2CCC3(CC2)OCCN3S(=O)(=O)c2ccc(C(=O)O)cc2)cc1` [Compound C0021], the “MOR agonist activity” value [1] was 159.7%, the “MOR agonist activity” value (1 μM + BFNA, Series C-1 table) was 90.7% and the “MOR agonist activity” value [3] was 192.0%.

In the case of `O=C(c1ccc([N+](=O)[O-])cc1)N1CCC2(CC1)OCCN2S(=O)(=O)c1ccc([N+](=O)[O-])cc1` [Compound C0022], the “MOR agonist activity” value [1] is reported as 194.3%, the “MOR agonist activity” value (1 μM + BFNA, Series C-1 table) is reported as 13.4% and the “MOR agonist activity” value [3] is reported as 328.7%.

In the case of `CNc1ccc(S(=O)(=O)N2CCC3(CC2)OCCN3S(=O)(=O)c2ccc(NC)cc2)cc1` [Compound C0024], the “MOR agonist activity” value [1] is reported as 178.4%, the “MOR agonist activity” value (1 μM + BFNA, Series C-1 table) is reported as 59.3% and the “MOR agonist activity” value [3] is reported as 229.6%.

`O=S(=O)(c1ccc(Br)cc1)N1CCC2(CC1)OCCN2S(=O)(=O)c1ccc(Br)cc1` [Compound C0025] was tested, and the “MOR agonist activity” value [1] was 235.7%, the “MOR agonist activity” value (1 μM + BFNA, Series C-1 table) was 80.2% and the “MOR agonist activity” value [3] was 320.7%.

`COc1ccc(S(=O)(=O)N2CCC3(CC2)NCCO3)cc1` [Compound C0026] was tested, and the “MOR agonist activity” value [2] was 207.2%, the “MOR agonist activity” value (1 μM + BFNA, Series C-2 table) was 21.2% and the “MOR agonist activity” value [4] was 288.4%.

`COc1ccc(S(=O)(=O)N2CCOC23CCNCC3)cc1` [Compound C0027] was tested, and the “MOR agonist activity” value [2] was 233.2%, the “MOR agonist activity” value (1 μM + BFNA, Series C-2 table) was 72.2% and the “MOR agonist activity” value [4] was 313.9%.

With `COC(=O)c1ccc(S(=O)(=O)N2CCC3(CC2)OCCN3S(=O)(=O)c2ccc(C(=O)OC)cc2)cc1` [Compound C0028] the “MOR agonist activity” value [1] was 93.9%, the “MOR agonist activity” value (1 μM + BFNA, Series C-1 table) was 78.4% and the “MOR agonist activity” value [3] was 132.4%.

In the case of `O=S(=O)(c1ccc(F)cc1)N1CCC2(CC1)OCCN2S(=O)(=O)c1ccc(F)cc1` [Compound C0029], the “MOR agonist activity” value [1] is reported as 175.4%, the “MOR agonist activity” value (1 μM + BFNA, Series C-1 table) is reported as 16.6% and the “MOR agonist activity” value [3] is reported as 308.8%.

`CCCCc1ccc(S(=O)(=O)N2CCC3(CC2)OCCN3S(=O)(=O)c2ccc(CCCC)cc2)cc1` [Compound C0030] was tested, and the “MOR agonist activity” value [1] was 150.3%, the “MOR agonist activity” value (1 μM + BFNA, Series C-1 table) was 95.0% and the “MOR agonist activity” value [3] was 226.8%.

For `O=C(c1ccc([N+](=O)[O-])cc1)N1CCC2(CC1)OCCN2C(=O)c1ccc([N+](=O)[O-])cc1` [Compound C0032], the “MOR agonist activity” value [1] was 145.4%, the “MOR agonist activity” value (1 μM + BFNA, Series C-1 table) was 80.9% and the “MOR agonist activity” value [3] was 202.0%.

With `O=C(c1ccc([N+](=O)[O-])cc1)N1CCC2(CC1)OCCN2S(=O)(=O)c1ccc([N+](=O)[O-])cc1` [Compound C0033] the “MOR agonist activity” value [1] was 134.5%, the “MOR agonist activity” value (1 μM + BFNA, Series C-1 table) was 76.6% and the “MOR agonist activity” value [3] was 186.4%.

With `NS(=O)(=O)c1ccc(S(=O)(=O)N2CCC3(CC2)OCCN3S(=O)(=O)c2ccc(S(N)(=O)=O)cc2)cc1` [Compound C0034] the “MOR agonist activity” value [1] was 103.6%, the “MOR agonist activity” value (1 μM + BFNA, Series C-1 table) was 80.1% and the “MOR agonist activity” value [3] was 167.9%.

With `O=[N+]([O-])c1ccc(S(=O)(=O)N2CCC3(CC2)NCCO3)cc1` [Compound C0040] the “MOR agonist activity” value [2] was 145.8%, the “MOR agonist activity” value (1 μM + BFNA, Series C-2 table) was 90.4% and the “MOR agonist activity” value [4] was 308.3%.

`COc1ccc(NC(=O)N2CCC3(CC2)OCCN3S(=O)(=O)c2ccc(OC)cc2)cc1` [Compound C0041] was tested, and the “MOR agonist activity” value [1] was 186.1%, the “MOR agonist activity” value (1 μM + BFNA, Series C-1 table) was 95.5% and the “MOR agonist activity” value [3] was 244.4%.

In the case of `O=C(OCc1ccccc1)c1ccc(S(=O)(=O)N2CCC3(CC2)OCCN3S(=O)(=O)c2ccc(C(=O)OCc3ccccc3)cc2)cc1` [Compound C0042], the “MOR agonist activity” value [1] is reported as 167.1%, the “MOR agonist activity” value (1 μM + BFNA, Series C-1 table) is reported as 110.6% and the “MOR agonist activity” value [3] is reported as 260.9%.

For `COc1ccc(S(=O)(=O)N2CCOC23CCN(C(=O)OC(C)(C)C)CC3)cc1` [Compound C0043], the “MOR agonist activity” value [2] was 175.4%, the “MOR agonist activity” value (1 μM + BFNA, Series C-2 table) was 83.3% and the “MOR agonist activity” value [4] was 242.6%.

`O=[N+]([O-])c1ccc(S(=O)(=O)N2CCC3(CC2)NCCS3)cc1` [Compound C0044] was tested, and the “MOR agonist activity” value [2] was 173.7%, the “MOR agonist activity” value (1 μM + BFNA, Series C-2 table) was 59.1% and the “MOR agonist activity” value [4] was 280.1%.

`O=[N+]([O-])c1ccc(S(=O)(=O)N2CCC3(CC2)NCCCO3)cc1` [Compound C0045] was tested, and the “MOR agonist activity” value [2] was 149.2%, the “MOR agonist activity” value (1 μM + BFNA, Series C-2 table) was 105.3% and the “MOR agonist activity” value [4] was 238.8%.

In the case of `CC(=O)c1ccc(S(=O)(=O)N2CCOC23CCNCC3)cc1` [Compound C0046], the “MOR agonist activity” value [2] is reported as 286.2%, the “MOR agonist activity” value (1 μM + BFNA, Series C-2 table) is reported as 156.8% and the “MOR agonist activity” value [4] is reported as 492.9%.

Source: patent US20220233512A1, “INHIBITING AN IMMUNE RESPONSE MEDIATED BY ONE OR MORE OF TLR2, RAGE, CCR5, CXCR4 AND CD4” (priority 2020, published 2022)
